PMC9788182, “Natural Compounds as Non-Nucleoside Inhibitors of Zika Virus Polymerase through Integration of In Silico and In Vitro Approaches” (Pharmaceuticals, 2022)
Read-outs that look alike come from different tables or passages of the source.

What was measured:
SARS-CoV-2 RdRp = system: SARS-CoV-2 RdRp; design: method as in PMID 35732785; conditions: cited from earlier work
DENV RdRP = conditions: ref 31 (10), ref 21 (11), ref 30 (12); cited from earlier work
DENV1 RdRP = system: DENV1 RdRP; design: method as in earlier work; conditions: ref 49 (13), ref 8 (14), ref 24 (15); cited from earlier work
DENV2 RdRP = system: DENV2 RdRP; design: method as in earlier work; conditions: ref 49 (13), ref 8 (14), ref 24 (15); cited from earlier work
DENV3 RdRP = system: DENV3 RdRP; design: method as in earlier work; conditions: ref 49 (13), ref 8 (14), ref 24 (15); cited from earlier work
DENV4 RdRP = system: DENV4 RdRP; design: method as in earlier work; conditions: ref 49 (13), ref 8 (14), ref 24 (15); cited from earlier work
ZIKV = system: ZIKV; design: method as in PMID 30392049; conditions: Vero cells; cited from earlier work
[1] = system: Japanese encephalitis virus (JEV); conditions: cited from earlier work
DENV-2 = system: DENV-2; design: method as in PMID 34126315, PMID 24965553; conditions: read-out: DENV2 EC50; cited from earlier work
ZIKV NS5 RdRp = ZIKV NS5 RdRp (Zika virus, UniProt Q32ZE1); experiment: ZIKV NS5-RdRp activity assays (endpoint and concentration-response); assay type: biochemical; conditions: for inhibition at 20 µM: endpoint assay at 20 µM, read-out: inhibitory activity against ZIKV RdRp
Chain of ZIKV NS5 RdRp (Q32ZE1 2822-3419): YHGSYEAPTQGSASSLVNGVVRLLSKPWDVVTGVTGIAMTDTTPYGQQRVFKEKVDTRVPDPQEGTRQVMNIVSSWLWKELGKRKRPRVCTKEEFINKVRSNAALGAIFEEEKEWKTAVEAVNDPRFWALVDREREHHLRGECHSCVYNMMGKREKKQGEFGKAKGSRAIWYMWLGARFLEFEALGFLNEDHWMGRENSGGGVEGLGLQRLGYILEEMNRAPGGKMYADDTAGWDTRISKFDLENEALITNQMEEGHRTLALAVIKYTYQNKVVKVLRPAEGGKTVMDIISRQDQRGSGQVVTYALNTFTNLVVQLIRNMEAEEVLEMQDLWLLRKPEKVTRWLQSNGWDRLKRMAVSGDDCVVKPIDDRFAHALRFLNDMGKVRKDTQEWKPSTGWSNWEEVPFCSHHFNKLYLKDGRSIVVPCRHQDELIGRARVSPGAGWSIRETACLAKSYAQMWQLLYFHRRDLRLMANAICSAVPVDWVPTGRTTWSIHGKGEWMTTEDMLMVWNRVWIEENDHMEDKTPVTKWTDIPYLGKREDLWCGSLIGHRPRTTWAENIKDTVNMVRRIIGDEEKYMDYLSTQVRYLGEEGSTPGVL
Method: Nine prioritized hits were submitted to endpoint assay at 20 µM to verify their inhibitory activity against ZIKV RdRp. […] Pedalitin and quercetin were the only ones with activity greater than 80%, with inhibitory activity of 97% and 99%, respectively, and consequently were selected for the concentration-response assays.
We then investigated ZIKV RdRp activity in the presence of pedalitin and quercetin.
ZIKV NS5-RdRp activity assays were performed as described by Fernandes and coworkers. The endpoint assays were performed at 20 μM, and the compounds that inhibited more than 80% of activity in this assay were submitted to a concentration-response test. The concentration-responses assays were performed as described in [94]. In all cases, the percentage inhibition values were calculated based on a control reaction, containing only DMSO in the same concentrations used for the tested compounds. The results were analyzed and plotted using the GraphPad Prism v. 8.0 program.

ZIKV^BR = experiment: Antiviral assay, Vero cells infected with ZIKV^BR, foci by immunofluorescence; assay type: cell-based, Zika virus; conditions: for SI (selectivity index): SI = CC50/EC50, Vero cells; for EC50: Zika virus, read-out: EC50 ZIKV
Method: The anti-ZIKV activities of the pedalitin and quercetin were further investigated through the employment of Vero cells infected with ZIKV wild type (ZIKV^BR) (Figure 6). […] Vero cells were infected with ZIKV^BR and simultaneously treated with pedalitin or quercetin at concentrations ranging from 200 µM to 0.005 µM for 72 h when viral replication rates were assessed (Figure 6). Cell viability analysis was performed in parallel (Figure 6).
Vero cells were seeded at density of 5 × 10^3 cells per well into 96-well plates 24 h prior to the infection. ZIKV-WT^BR at a multiplicity of infection (MOI) of 0.1 and compound at concentrations ranging from 200 to 0.005 µM were simultaneously added to cells. 72 h post-infection (h.p.i.), cells were fixed with paraformaldehyde 4%, washed with PBS and blocking buffer (BB) containing: 0.1% Triton X-100 (Vetec Labs, PR, BR), 0.2% bovine albumin (BSA) and PBS for 30 min. Then, cells were incubated with primary rabbit polyclonal anti-NS3 antibody diluted in BB for 1 h. Alexa Fluor 488 conjugated anti-rabbit IgG was used as secondary antibody (Abcam, Cambridge, UK). Images were analyzed by EVO cell imaging systems fluorescence microscopy (Thermo Fisher Scientific, OH, USA) and foci of infection were counted. The antiviral activity was calculated according to the equation (T/C) × 100%, where T and C represent the mean of the treated group and mean of the […], respectively. […] 8. The values of CC50 and EC50 were used to calculate the selectivity index (SI = CC50/EC50).

Cell viability, MTT = assay type: cell-based; conditions: African green monkey, Vero cells
Method: Cell viability was measured by the MTT [3-(4,5-dimethylthiazol-2-yl)-2,5-diphenyl tetrazolium bromide] (Sigma–Aldrich) method. Vero cells were seeded in a 96-well plate at a density of 5 × 10^3 cells per well and incubated overnight at 37 °C in a humidified 5% CO2 incubator. A drug-containing medium at concentrations ranging from 200 to 0.005 µM was added to the cell culture. After 72 h at 37 °C, the media was removed and a solution containing MTT at the final concentration of 1 mg/mL was added to each well and incubated for 30 min at 37 °C in a humidified 5% CO2 incubator, after which media was replaced with 100 μL of DMSO to solubilize the formazan crystals. Absorbance was measured by the optical density (OD) of each well at 490 nm, using a spectrophotometer. Cell viability was calculated according to the equation (T/C) × 100%, where T and C represent the mean optical density of the treated group and vehicle control group, respectively. […] 8 [95].

DENV-2 virus = system: DENV-2 virus; design: method as in PMID 22201648; conditions: Vero cells, cited from earlier work
ZIKV RdRp [2] = system: ZIKV RdRp; design: method as in PMID 31310806; conditions: cited from earlier work
ZIKV RdRp [3] = system: ZIKV RdRp; design: method as in PMID 28098253; conditions: cited from earlier work

In the case of `O=c1cc(-c2ccc(O)c(O)c2)oc2cc(O)cc(O)c12` [luteolin], the IC50 (SARS-CoV-2 RdRp) is listed as 4.6 µM.

For `O=C(O)CCCC(/C=C/c1ccccc1)c1c(O)c(C(CCCC(=O)O)CCc2ccccc2)c(O)c2c(=O)cc(-c3ccccc3)oc12` (stereo not drawn) [Compound 11, chartaceone D], the IC50 (DENV RdRP) is listed as 1.8 ± 1.2 µM.

For podocarpusflavone A [Compound 10], the IC50 (DENV RdRP) is listed as 0.16 ± 0.02 µM.

In the case of `COc1cc(C)c(C(=O)NS(=O)(=O)c2cccc3cccnc23)cc1-c1ccc(C#CCO)s1` [Compound 15, 5-(5-(3-Hydroxyprop-1-yn-1-yl)thiophen-2-yl)-4-methoxy-2-methyl-N-(quinolin-8-ylsulfonyl)benzamide], the IC50 (DENV1 RdRP) is listed as 0.013 µM, the IC50 (DENV2 RdRP) is listed as 0.038 µM and the IC50 (DENV3 RdRP) is listed as 0.016 µM. The IC50 (DENV4 RdRP) was 0.023 ± 0.01 µM.

In the case of `O=c1cc(-c2ccccc2)oc2cc(O)c(O)c(O)c12` [Compound 18, baicalein], the EC50 (ZIKV) is given as 0.004 µM, the “JEV ED50” value ([1]; Figure 4) is given as 27 µM and the EC50 [1] is given as 27 ± 4 µM. For the same molecule, the EC50 (DENV-2) was 55.1 µM.

For `COc1cc2oc(-c3ccc(O)c(O)c3)cc(=O)c2c(O)c1O` [Compound 8, Pedalitin], the IC50 (ZIKV NS5 RdRp) was 4.1 ± 0.3 µM, the inhibition at 20 µM (ZIKV NS5 RdRp) was 97% and the “SI (selectivity index)” value (ZIKV^BR) was 4.34. It also gave an EC50 (ZIKV^BR; Vero, 72 h) of 19.3 µM and a CC50 at 72 h (Cell viability, MTT) of 83.7 µM.

For `O=c1c(O)c(-c2ccc(O)c(O)c2)oc2cc(O)cc(O)c12` [Compound 9, Quercetin], the IC50 (ZIKV NS5 RdRp; concentration-response, 80 µM to 0.156 µM, read-out: IC50 ZIKV RdRp) was 0.5 ± 0.1 µM, the inhibition at 20 µM (ZIKV NS5 RdRp) was 99% and the “SI (selectivity index)” value (ZIKV^BR) was 2.03. For the same molecule, the EC50 (ZIKV^BR; Vero cells, ZIKV^BR MOI 0.1, 72 h, 200 to 0.005 µM) was 17.7 µM, the CC50 at 72 h (Cell viability, MTT) was 36 µM and the IC50 (SARS-CoV-2 RdRp) was 6.9 µM. For the same molecule, the EC50 (DENV-2 virus; administration after viral adsorption) was 95.6 µM and the “reduction of DENV-2 replication” value (DENV-2 virus; concentration of 165.4 µM) was 67%.

For `O=C(Cc1ccccc1Nc1c(Cl)cccc1Cl)NC1(C(=O)O)Cc2ccccc2C1` [Compound 13, bis-chloro-diphenylamine, 2-aminoindan-2-carboxyl derivative], the IC50 (DENV1 RdRP) is given as 6.6 ± 1.3 µM, the IC50 (DENV2 RdRP) is given as 16.5 ± 1.8 µM and the IC50 (DENV3 RdRP) is given as 12.8 ± 1.3 µM. The IC50 (DENV4 RdRP) was 6.1 ± 1 µM.

For `C=CCCCCCCCCC(=O)O` [Compound 17, undecylenic acid], the EC50 (ZIKV RdRp [2]) is listed as 7.43 µM.

In the case of `COc1cccc(S(=O)(=O)NC(=O)c2cc(-c3ccc(C#CCO)s3)c(OC)cc2OC)c1` [Compound 14, 5-(5-(3-Hydroxyprop-1-yn-1-yl)thiophen-2-yl)-2,4-dimethoxy-N-((3-methoxyphenyl)sulfonyl)benzamide], the IC50 (DENV1 RdRP) is given as 0.068 µM, the IC50 (DENV2 RdRP) is given as 0.106 µM and the IC50 (DENV3 RdRP) is given as 0.048 µM. For the same molecule, the IC50 (DENV4 RdRP) was 0.172 ± 0.097 µM.

For `CC(C)OC(=O)[C@H](C)N[P@](=O)(OC[C@H]1O[C@@H](n2ccc(=O)[nH]c2=O)[C@](C)(F)[C@@H]1O)Oc1ccccc1` [Sofosbuvir, sofosbuvir], the IC50 (ZIKV RdRp [3]) is listed as 0.38 ± 0.03 µM.

For `O=C(O)[C@H]1O[C@@H](Oc2cc3oc(-c4ccccc4)cc(=O)c3c(O)c2O)[C@H](O)[C@@H](O)[C@@H]1O` [Compound 19, baicalin], the EC50 (ZIKV) is given as 14 µM.

In the case of `COc1cc(O)c2c(=O)c(O)c(-c3ccc(O)c(O)c3)oc2c1` [Compound 12, rhamnetin], the IC50 (DENV RdRP) is listed as 2.2 ± 0.2 µM.
